# In PMC8601123, “Drug delivery, biodistribution and anti-EGFR activity: theragnostic nanoparticles for simultaneous in vivo delivery of tyrosine kinase inhibitors and kinase activity biosensors” (Nanoscale, 2021):
# Key:
# EGFR [1] = target: T1, EGFR (Homo sapiens, UniProt P00533); test: Western blot of EGFR phosphorylation, time course of inhibitory effect; type: cell-based; settings: for duration of EGFR inhibition: western blot (Fig. 2d)
# T1 construct: endogenous in cells; host or cells: LIM1215 colon cancer cells
# Source text: (§1) We then prepared variant lipopolyplex formulations, based on CLA1 and including the EGFR inhibitor K16Cys-S-S-[PEG6-IPQA] 1 (Table 1). […] For efficient perfusion through the leaky endothelial cells of the tumor, lipopolyplexes must be <150 nm in diameter. […] We also carried out in vitro studies to check that the disulfide linker between K16Cys and PEG-IPQA was labile under pseudo-intracellular conditions (GSH/GSSG, HEPES, pH 7.2).[66] […] Next, we assessed the effectiveness of K16Cys-S-S-[PEG6-IPQA] 1 as an inhibitor of EGFR activity as a free therapeutic or within lipopolyplexes by utilizing FRET-FLIM and validating our results by western blot (WB) techniques. Activation of EGFR in cells treated with EGF (natural ligand for EGFR) was evident by decreasing lifetime of green fluorescent protein (GFP) in Picchu-X biosensor (Fig. 2c) and by appearance of phosphorylated EGFR band in WB image (Fig. 2d). In both cases pre-treatment with MeO-[PEG6-IPQA]
# Fig. 2 Effect of different lipopolyplex formulations and drug loading on the expression of EGFR in targeted cells and inhibition of its activity upon stimulation with EGF. LIM1215 cells transfected with different lipopolyplexes without inhibitor (CLA1–4, NAE1–4, NGE1–4) (a) or with increasing amount of inhibitor per particle (F1LA1–3, F2LA1–3) (b) 24 h after seeding.
# LIM1215, DiFi, SW48 and DLD1 colon cancer cell lines (independently validated by STR DNA fingerprinting at The Institute of Cancer Research (London, UK), were maintained in RPMI-1640 (Life Technologies Ltd). Antibodies: anti-EGFR (clone D38B1) anti-p-Y1173-EGFR (clone 53A5) were from Cell Signaling Technology Ltd.
# EGFR [2] = target: T1, EGFR; test: FRET-FLIM analysis of EGF-induced EGFR activity with Picchu-X biosensor in cells; type: cell-based; set-up: inhibition of EGF-induced EGFR activity (FRET-FLIM), difference between the groups: dose or concentration left out as unconfirmed
# Source text: as §1, with “Activation of EGFR in cells treated with EGF (natural ligand for EGFR) was evident by decreasing lifetime of green fluorescent protein (GFP) in Picchu-X biosensor (Fig. 2c) and by appearance of phosphorylated EGFR band in WB image (Fig. 2d). In both cases pre-treatment with MeO-[PEG6-IPQA]” left out
# A10 μM solution of the non-radiolabelled F1LA1 K16Cys-S-S-[PEG6-IPQA] lipopolyplex was applied to cells at 60% confluence in 96-well-plates. […] Time-domain fluorescence lifetime images were acquired via time correlated single photon counting (TCSPC) at a resolution of 256 by 256 pixels, with 256 time bins and 100 frames accumulated over 300 seconds, via excitation and emission filters suitable for the detection of GFP fluorescence (Excitation filter: Semrock FF01-470/22 nm; Beam Splitter: Edmund 48NT-392 30R/70 T; Emission filter: Semrock FF01-510/20 nm). […]
# [3] = Cleavage of the disulfide linker under pseudo-intracellular conditions; type: physicochemical; settings: reducing pseudo-intracellular conditions, GSH/GSSG, HEPES, pH 7.2 (Fig. S7)
# Source text: as §1
# LIM1215 xenografts = test: In vivo radioactive organ biodistribution in LIM1215 xenograft mice; set-up: species or system CD1 nu/nu mice
# Protocol: Fig. 3 In vivo radioactive organ biodistribution data presented in % Injected Dose per gram (%ID g^−1) for MeO-[PEG6-[^125I]-IPQA] 8 (black columns) and F1LA1 K16Cys-SMal-[PEG3-[^125I]-IPQA] 9 lipopolyplex (grey columns) 3, 6 and 24 h after injection. The tumor %ID g^−1 at 3, 6 and 24 h for both tracers is represented on a separate graph.
# All animal studies were approved by the University College London Biological Services Ethical Review Committee and licensed under the UK Home Office regulations and the Guidance for the Operation of Animals (Scientific Procedures) Act 1986 (Home Office, London, United Kingdom). 12 female 6–8 weeks old CD1 nu/nu mice (Charles River Laboratories, UK) were injected subcutaneously in the right flank with 2 × 10^6 LIM1215 cells in 100 μL PBS. Once palpable tumors were measure in three orthogonal directions using the following equation: length × height × width × π/6. Once tumors had reached approximately 70–100 mm^3 mice were randomly divided into 2 groups; group 1 received an intravenous injection of 0.5Mbq MeO-[PEG6-[^125I]-IPQA] 8 (n = 6), group 2 received an intravenous injection of 0.5MBq F1LA1 K16Cys-SMal-[PEG3-[^125I]-IPQA]-lipopolyplex (n = 6). Mice were then culled at 3, 6 and 24 hours (n = 2 per time point) and all organs were taken, weighed and ^125I uptake quantified using a gamma counter (Wizard, PerkinElmer) to obtain % Injected dose per gram (%ID g^−1).
# EGFR [4] = test: EGFR activation by EGF in SW48 cells, western blot; type: cell-based; settings: serum-free 24 h, 1 h pre-treatment, EGF 100 ng/mL 5 min, western blot (Fig. S1)
# Protocol: To test the ability of lipopolyplexes to deliver pDNA and inhibitor we used LIM1215 colon cancer cells. […] As a control, to check the response of the colorectal cancer cell lines to this class of TKI, we prepared an analogue of 1, with the disulfide-linked peptide replaced with an –OMe group. TKI analogue MeO-[PEG6-IPQA]
# Optimization of EGFR inhibitor delivery to target cells
# Figure S1. Effect of MeO-[PEG6-IPQA] (8) on EGFR activation by EGF in SW48 cells.
# Cells were seeded in 6-well plate, 48 h later media was changed for media without serum. 24 h later cells were pre-treated with MeO-[PEG6-IPQA] (8) at indicated concentrations for 1 h followed by treatment with EGF (100 ng/mL) for 5 min. Cells were lysed and subjected to western blot analysis for activation/phosphorylation of EGFR and downstream signalling […]
# (1 picture or pasted object on this page, not shown here)
# [5] = cited from earlier work
# Source text: This approach also allowed us to further investigate the basis for the enhanced circulation and better tumour selectivity afforded by nanoparticle delivery of small molecule therapeutics. […] This phenomenon will need further investigation of potential differences in trafficking of the drug within the cell post-uptake, both in terms of the subcellular compartments involved and kinetics of intracellu ...
compound,measurement,setting,value
K16Cys-S-S-[PEG6-IPQA] [Compound 1],duration of EGFR inhibition,EGFR [1]; delivered within lipopolyplexes,up to 48 h
same,"EGFR activity, inhibitor within lipopolyplexes","EGFR [1]; delivered within lipopolyplexes, western blot (Fig. 2d, lines 3-7 vs. line 2)",equally low levels as the free drug
same,"inhibition of EGF-induced EGFR activity (FRET-FLIM), difference between the groups","EGFR [2]; free agent, P = 0.03 (Fig. 2c legend)",statistically significant
same,time to cleavage of disulfide linkage,[3],≤ 5 min
"C=CC(=O)Nc1cc2c(Nc3cccc(I)c3)ncnc2cc1OCCOCCOCCOCCOCCOCCOC [Compound 8, MeO-[PEG6-IPQA]]",duration of EGFR inhibition,EGFR [1]; free agent,24 h
same,level of EGFR phosphorylation,"EGFR [1]; pre-treatment for 1 h, EGF stimulation, western blot (Fig. 2d, line 8 vs. line 2)",significantly lower than in the sample without inhibitor
same,lifetime of GFP in Picchu-X biosensor after EGF,"EGFR [2]; pre-treatment for 1 h, then EGF (Fig. 2c)",remained at baseline levels
same,organ uptake,"LIM1215 xenografts; i.v. 0.5 MBq, 3, 6 and 24 h, 125I gamma counting, %ID g-1 (Fig. 3)",high uptake in gallbladder and intestines at 3 and 6 h
same,clearance route,"LIM1215 xenografts; i.v. 0.5 MBq, 125I gamma counting, n = 2 per time point",rapidly cleared via the hepatobiliary route
same,time of highest tumor uptake,"LIM1215 xenografts; i.v. 0.5 MBq, time points 3, 6 and 24 h, gradual reduction over 24 h",3 h
same,inhibition of EGFR activation by EGF,EGFR [4],potent inhibitor of EGFR activation
C=CC(=O)Nc1cc2c(Nc3cccc(I)c3)ncnc2cc1OCCOCCOCCOCCOCCOCCF [[^18F]F-PEG6-IPQA],selectivity for tumour cells,[5],little selectivity for tumour cells
same,in vivo clearance,[5]; compared with Mo-IPQA,quicker in vivo clearance
